Test: xn = mol fraction of the nth substance listed
Conditions: Liquid, Vibrating tube method

CCCCCCCCCC [decane] + COC(=O)OC
mass density [kg/m3]
Conditions	100 kPa	10000 kPa	20000 kPa	30000 kPa	40000 kPa
298.15 K, x2 = 0.0676	–	–	–	755.23	761.28
298.15 K, x2 = 0.2303	–	–	–	781.73	788.05
298.15 K, x2 = 0.2934	–	–	–	–	800.4
298.15 K, x2 = 0.4055	–	–	–	818.38	825
298.15 K, x2 = 0.502	–	–	836.29	843.57	850.35
298.15 K, x2 = 0.5476	–	–	849.77	857.18	864.11
298.15 K, x2 = 0.5883	–	–	862.62	870.04	876.98
298.15 K, x2 = 0.665	–	–	889.73	897.31	904.39
298.15 K, x2 = 0.7101	–	–	908.1	915.87	923.09
298.15 K, x2 = 0.7993	–	–	948.28	956.06	–
298.15 K, x2 = 0.9062	–	–	1009.74	1017.62	1025.01
303.15 K, x2 = 0.0676	730.48	738.15	745.3	751.9	758.05
303.15 K, x2 = 0.2303	755.57	763.68	771.21	778.15	784.61
303.15 K, x2 = 0.2934	767.36	775.58	783.23	790.27	796.82
303.15 K, x2 = 0.4055	790.78	799.32	807.2	814.45	821.19
303.15 K, x2 = 0.502	815.09	823.86	831.94	839.39	846.29
303.15 K, x2 = 0.5476	828.19	837.03	845.25	852.82	859.91
303.15 K, x2 = 0.5883	840.82	849.74	858.02	865.63	872.72
303.15 K, x2 = 0.665	867.33	876.43	884.86	892.63	899.87
303.15 K, x2 = 0.7101	885.21	894.46	903.07	911.02	918.42
303.15 K, x2 = 0.7993	925.09	934.41	943.03	951.01	958.41
303.15 K, x2 = 0.9062	985.93	995.33	1004.09	1012.2	1019.78
308.15 K, x2 = 0.0676	726.53	734.45	741.78	–	–
308.15 K, x2 = 0.2303	751.35	759.73	767.45	–	–
308.15 K, x2 = 0.2934	763	771.51	779.37	–	–
308.15 K, x2 = 0.4055	786.2	794.99	803.1	–	–
308.15 K, x2 = 0.502	810.29	819.3	–	–	–
308.15 K, x2 = 0.5476	823.17	832.33	–	–	–
308.15 K, x2 = 0.5883	835.71	844.95	–	–	–
308.15 K, x2 = 0.665	861.96	871.37	–	–	–
308.15 K, x2 = 0.7101	879.57	889.19	–	–	–
308.15 K, x2 = 0.7993	919.3	928.93	–	–	–
308.15 K, x2 = 0.9062	979.75	989.47	–	–	–

From the NIST ThermoML archive (doi:10.1021/je0342320)
